What all share (assay type): cell-based
For assay [1], the system named is OPM-2. In words: Inhibition of proliferation of OPM-2 cells. Particulars: Homo sapiens; Multiple myeloma cell line OPM-2; read-out: IC50 against OPM-2. The procedure: (§1) 1) CWR22RV1 cells were subcultured in cell culture medium, and the cells in good growth condition were seeded in a 96-well plate, 80 μL for each well, and the cell number in each well was 1500. The plate was incubated overnight in a 37° C., 5% CO2 cell incubator. 2) The drug was prepared as 30 mM stock solution with dimethyl sulfoxide (DMSO). Prior to use, the stock solution was diluted 3 times with DMSO, and then further diluted as 3-fold gradient to obtain 9 concentration gradients. Then, each concentration of compound was diluted 200 times with the culture solution (ensuring that the DMSO concentration in the culture system was 0.1%), and two replicate wells were set for each concentration. 20 μL of diluted compound solution was added to the cell culture well (with final concentrations of 10 μM, 3.3 μM. 1.1 μM . . . ), and the plate was gently shaken to mix. In addition, 3 negative control wells containing only cells and 3 blank control wells containing only culture medium were included (6 wells were each added 20 μL DMSO diluted 200 times with culture medium). 2. Result detection: (1) After culturing for 6 days, 10 μL CCK-8 was added to each well, and the plate was continually cultured in a 37° C., 5% CO2 cell incubator for 2.5 h. (2) The absorbance (OD value) was detected at 450 nm using a multifunctional microplate reader. (3) The data were analyzed by Dose-response-inhibition equation in the software GraphPad Prism6, and the IC50 value was obtained.
(§2) Using the same method as Experimental example 2, CWR22RV1 cells were replaced with tumor cells in Table 3, and the IC50 (nM) of the compound according to the present invention against the activity of these tumor cells was tested and calculated.

For assay [2], the system named is MOLM-16. Description: Inhibition of proliferation of MOLM-16 cells. The note with it: MOLM16; Leukemia cell line MOLM-16; read-out: IC50 against MOLM-16. The procedure: as §1, §2
The subject of assay [3] is NCI-H929. In words: Inhibition of proliferation of NCI-H929 cells. The note with it: Homo sapiens; Multiple myeloma cell line NCI-H929; read-out: IC50 against NCI-H929. The procedure:
as §1, §2

For assay [4], the system named is LNCAP-AR. In words: Inhibition of proliferation of LNCAP-AR cells. Particulars: Prostate cancer cell line LNCAP-AR; read-out: IC50 against LNCAP-AR. The procedure: as §1, §2
Assay [5] has as its system DU4475. Description: Inhibition of proliferation of DU4475 cells. The note with it: Homo sapiens, DU-4475; Breast cancer cell line DU4475; read-out: IC50 against DU4475. The procedure: as §1, §2
The test system of assay [6] is OCI-AML3. In words: Inhibition of proliferation of OCI-AML3 cells. Particulars: Homo sapiens, OCI-AML-3; Leukemia cell line OCI-AML3; read-out: IC50 against OCI-AML3. The procedure:
as §1, §2

In assay [7] the test system is KMS-12-PE. Description: Inhibition of proliferation of KMS-12-PE cells. The note with it: Homo sapiens; Lymphoma cell line KMS-12-PE; read-out: IC50 against KMS-12-PE. The procedure: as §1, §2
Assay [8] deals with MCF-7. Description: Inhibition of proliferation of MCF-7 cells. The note with it: Homo sapiens, MCF7; Breast cancer cell line MCF-7; read-out: IC50 against MCF-7. The procedure: as §1, §2
Assay [9] relates to MM.1R. In words: Inhibition of proliferation of MM.1R cells. Particulars: Lymphoma cell line MM.1R; read-out: IC50 against MM.1R. The procedure:
as §1, §2

Assay [10] concerns BT-474. In words: Inhibition of proliferation of BT-474 cells. The note with it: Homo sapiens; Breast cancer cell line BT-474; read-out: IC50 against BT-474. The procedure:
as §1, §2

In assay [11] the test system is MOLT-4. Description: Inhibition of proliferation of MOLT-4 cells. The note with it: Homo sapiens; Leukemia cell line MOLT-4; read-out: IC50 against MOLT-4. The procedure:
as §1, §2

Assay [12] deals with HEL. In words: Inhibition of proliferation of HEL cells. Particulars: Homo sapiens; Leukemia cell line HEL; read-out: IC50 against HEL. The procedure: as §1, §2
The subject of assay [13] is MM.1S. In words: Inhibition of proliferation of MM.1S cells. The note with it: Homo sapiens, MM1.S; Multiple myeloma cell line MM.1S; read-out: IC50 against MM.1S. The procedure:
as §1, §2

Assay [14] concerns VCAP. Description: Inhibition of proliferation of VCAP cells. The note with it: Homo sapiens; Prostate cancer cell line VCAP; read-out: IC50 against VCAP. The procedure:
as §1, §2

Assay [15] has as its system LNCAP. Description: Inhibition of proliferation of LNCAP cells. The note with it: Homo sapiens; Prostate cancer cell line LNCAP; read-out: IC50 against LNCAP. The procedure: as §1, §2
The subject of assay [16] is TALL-1. In words: Inhibition of proliferation of TALL-1 cells. Particulars: Homo sapiens; Leukemia cell line TALL-1; read-out: IC50 against TALL-1. The procedure:
as §1, §2

Assay [17] deals with ATN-1. In words: Inhibition of proliferation of ATN-1 cells. The note with it: Homo sapiens; Leukemia cell line ATN-1; read-out: IC50 against ATN-1. The procedure: as §1, §2
The test system of assay [18] is KARPAS-422. Description: Inhibition of proliferation of KARPAS-422 cells. Particulars: Homo sapiens; Lymphoma cell line KARPAS-422; read-out: IC50 against KARPAS-422. The procedure: as §1, §2
The test system of assay [19] is MAVER-1. Description: Inhibition of proliferation of MAVER-1 cells. The note with it: Homo sapiens, Maver1; Lymphoma cell line MAVER-1; read-out: IC50 against MAVER-1. The procedure: as §1, §2
For assay [20], the system named is HCC1428. In words: Inhibition of proliferation of HCC1428 cells. Particulars: Homo sapiens; Breast cancer cell line HCC1428; read-out: IC50 against HCC1428. The procedure: as §1, §2
Assay [21] concerns MDA-MB-453. In words: Inhibition of proliferation of MDA-MB-453 cells. Particulars: Homo sapiens; Breast cancer cell line MDA-MB-453; read-out: IC50 against MDA-MB-453. The procedure:
as §1, §2

Assay [22] deals with EVSA-T. In words: Inhibition of proliferation of EVSA-T cells. The note with it: Homo sapiens; Breast cancer cell line EVSA-T; read-out: IC50 against EVSA-T. The procedure:
as §1, §2

Assay [23] has as its system Z-138. In words: Inhibition of proliferation of Z-138 cells. The note with it: Homo sapiens; Lymphoma cell line Z-138; read-out: IC50 against Z-138. The procedure: as §1, §2
The test system of assay [24] is MT-2. In words: Inhibition of proliferation of MT-2 cells. Particulars: Homo sapiens, MT2; Leukemia cell line MT-2; read-out: IC50 against MT-2. The procedure: as §1, §2

As a reminder, the IC50 is the concentration that inhibits the measured activity by half. With `CNC(=O)Nc1ccc2c(c1)CC[C@@]21OC(=O)N(CC(=O)N2C(C)CC[C@H]2c2cc(F)c(F)c(F)c2)C1=O` (stereo in doubt) [Example 205, 1-((R)-3′-(2-((2S,5R)-2-(3,4,5-trifluorophenyl)-5-methylpyrrolidin-1-yl)-2-oxoethyl)-2′,4′-dioxo-2,3-dihydrospiro[indene-1,5′-oxazolidine]-5-yl)-3-methylurea], the IC50 is at most 500 nM in assay [1]; at most 500 nM in [2]; at most 500 nM in assay [3]; at most 500 nM in [4]; 500 to 2000 nM in assay [5]; at most 500 nM in assay [6]. Besides, the IC50 in assay [7] is 500 to 2000 nM; in [8] it was at most 500 nM; in assay [9], at most 500 nM; in assay [10] it was at most 500 nM; in assay [11], at most 500 nM; in assay [12], 500 to 2000 nM. Further, the IC50 in assay [13] is 500 to 2000 nM; in [14], at most 500 nM; in assay [15], at most 500 nM; in [16], at most 500 nM; in assay [17] it was at most 500 nM; in [18], at most 500 nM. The IC50 is at most 500 nM in assay [19]; at most 500 nM in assay [20]; at most 500 nM in assay [21]; 500 to 2000 nM in [22]; at most 500 nM in assay [23]; 500 to 2000 nM in assay [24].

Take `CNC(=O)Nc1ccc2c(c1)CC[C@@]21OC(=O)N(CC(=O)N2[C@@H](C)CC[C@H]2c2ccc(F)c(F)c2)C1=O` [Example 201]: the IC50 in assay [1] is at most 500 nM; in [2], at most 500 nM; in [3] it was at most 500 nM; in assay [4], at most 500 nM; in [5] it was 500 to 2000 nM; in [6], at most 500 nM. The concentration for half-maximal inhibition (IC50) in assay [7] is 500 to 2000 nM; in [8] it was at most 500 nM; in assay [9], at most 500 nM; in assay [10], at most 500 nM; in assay [11], at most 500 nM; in assay [12] it was 500 to 2000 nM. Moreover, the concentration for half-maximal inhibition (IC50) was 500 to 2000 nM in [13]; at most 500 nM in assay [14]; at most 500 nM in assay [15]; at most 500 nM in assay [16]; at most 500 nM in assay [17]; at most 500 nM in assay [18]. For the same compound, the IC50 in [19] was at most 500 nM; in assay [20], at most 500 nM; in assay [21], at most 500 nM; in [22], 500 to 2000 nM; in [23], at most 500 nM; in assay [24], 500 to 2000 nM.

As for `CNC(=O)Nc1cc2c(cc1F)[C@@]1(CC2)OC(=O)N(CC(=O)N2[C@@H](C)CC[C@H]2c2ccc(F)c(F)c2)C1=O` [Example 389, 1-((R)-3′-(2-((2S,5S)-2-(3,4-difluorophenyl)-5-methylpyrrolidin-1-yl)-2-oxoethyl)-6-fluoro-2′,4′-dioxo-2,3-dihydrospiro[indene-1,5′-oxazolidine]-5-yl)-3-methylurea], the IC50 is at most 500 nM in assay [1]; at most 500 nM in [2]; at most 500 nM in [3]; at most 500 nM in assay [4]; 500 to 2000 nM in assay [5]; at most 500 nM in assay [6]. Besides, the IC50 in [7] is 500 to 2000 nM; in assay [8], at most 500 nM; in assay [9], at most 500 nM; in assay [10], at most 500 nM; in [11] it was at most 500 nM; in assay [12], at most 500 nM. Moreover, the IC50 in [13] was 500 to 2000 nM; in assay [14], at most 500 nM; in [15], at most 500 nM; in assay [16] it was at most 500 nM; in assay [17], at most 500 nM; in assay [18], at most 500 nM. Further, the IC50 in assay [19] is at most 500 nM; in assay [20] it was at most 500 nM; in assay [21] it was at most 500 nM; in assay [22] it was 500 to 2000 nM; in assay [23], at most 500 nM; in assay [24], at most 500 nM.

The values above are taken from US20220087996A1, “Histone acetylase p300 inhibitor and use thereof” (HINOVA PHARMACEUTICALS INC., priority 2018, published 2022).
